Laboratory results as given in patent US7329634B2, “3-Phenyl substituted 3-substituted-4ketolactams and ketolactones” (Bayer CropScience AG, priority 2003, dated 2008).

What was measured:
Meloidogyne incognita = assay: Meloidogyne test; format: in vivo; settings: 20 ppm; nematicidal action by formation of galls on lettuce roots; 100% = no galls
Description: • Solvents: 78 parts by weight of acetone • 1.5 parts by weight of dimethylformamide • Emulsifier: 0.5 part by weight of alkylaryl polyglycol ether
To produce a suitable preparation of active compound, 1 part by weight of active compound is mixed with the stated amounts of solvent and emulsifier, and the concentrate is diluted with water to the desired concentration.
Vessels are filled with sand, solution of active compound, Meloidogyne incognita egg/larvae suspension and lettuce seeds. The lettuce seeds germinate and the plants develop. On the roots, galls develop.
After the desired period of time, the nematicidal action is determined in % by the formation of galls. 100% means that no galls have been found; 0% means that the number of galls on the treated plants corresponds to that of the untreated control.

[1] = test system: greenhouse red spider mite (Tetranychus urticae); assay: Tetranychus test (OP-resistant/spray treatment); format: in vivo; settings: 100 ppm; spray treatment of bean leaf discs (Phaseolus vulgaris); OP-resistant
Description: Tetranychus Test (OP-Resistant/Spray Treatment)
• Solvents: 78 parts by weight of acetone • 1.6 parts by weight of dimethylformamide • Emulsifier: 0.5 part by weight of alkylaryl polyglycol ether
To produce a suitable preparation of active compound, 1 part by weight of active compound is mixed with the stated amounts of solvent and emulsifier, and the concentrate is diluted with emulsifier-containing water to the desired concentration.
Discs of the leaves of beans (Phaseolus vulgaris) which are infested by all stages of the greenhouse red spider mite (Tetranychus urticae) are sprayed with a preparation of active compound of the desired concentration.
After the desired period of time, the activity in % is determined. 100% means that all spider mites have been killed; 0% means that none of the spider mites have been killed.

CCc1cc(Br)cc(Br)c1C1(Cl)C(=O)NC(C)(C)C1=O (centres unmarked) [Ex. I-1-1]
Effect in % after 14d (Meloidogyne incognita): 100% | Kill rate in % after 4d [1]: 80%
